According to ChEMBL document CHEMBL1201862, “PubChem BioAssay data set” (2004):
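1) Cells in 96-well plates. 2) Compound, 48 h, 5 concentrations. 3) Linear interpolation between surrounding doses. 4) Unreached endpoint = highest concentration. GI50 marks 50% less growth.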 Calls of active or inactive are those of the source. Cut-off read from the data, not from the text of the source: active = GI50 up to about 1.1 µM and inactive = higher.

How the values were obtained:
Assay in all cases: NCI-60 cell line screen, 48 h
786-0 = system: 786-0
A498 = system: A498
A549 = system: A549
ACHN = system: ACHN
BT-549 = system: BT-549
CAKI-1 = system: CAKI-1
CCRF-CEM = system: CCRF-CEM
COLO 205 = system: COLO 205
DU-145 = system: DU-145
EKVX = system: EKVX
HCT-116 = system: HCT-116
HCT-15 = system: HCT-15
HOP-62 = system: HOP-62
HOP-92 = system: HOP-92
HT-29 = system: HT-29
Hs-578T = system: Hs-578T
IGROV-1 = system: IGROV-1
K562 = system: K562
KM12 = system: KM12
LOX IMVI = system: LOX IMVI
M14 = system: M14
MCF7 = system: MCF7
MDA-MB-231 = system: MDA-MB-231
MDA-MB-435 = system: MDA-MB-435
MDA-N = system: MDA-N
MOLT-4 = system: MOLT-4
Malme-3M = system: Malme-3M
NCI-H23 = system: NCI-H23
NCI-H460 = system: NCI-H460
NCI-H522 = system: NCI-H522
NCI/ADR-RES = system: NCI/ADR-RES
OVCAR-3 = system: OVCAR-3
OVCAR-4 = system: OVCAR-4
OVCAR-5 = system: OVCAR-5
OVCAR-8 = system: OVCAR-8
PC-3 = system: PC-3
RPMI-8226 = system: RPMI-8226
RXF 393 = system: RXF 393
SF-268 = system: SF-268
SF-295 = system: SF-295
SF-539 = system: SF-539
SK-MEL-28 = system: SK-MEL-28
SK-MEL-2 = system: SK-MEL-2
SK-MEL-5 = system: SK-MEL-5
SK-OV-3 = system: SK-OV-3
SN12C = system: SN12C
SNB-19 = system: SNB-19
SNB-75 = system: SNB-75
SR = system: SR
SW-620 = system: SW-620
T47D = system: T47D
TK-10 = system: TK-10
U-251 = system: U-251
UACC-257 = system: UACC-257
UACC-62 = system: UACC-62
UO-31 = system: UO-31
NCI-H226 = system: NCI-H226
HCC 2998 = system: HCC 2998
HL-60 = system: HL-60

In the case of Cc1c[n+]([O-])c2ccccc2[n+]1[O-], the GI50 (786-0) is reported as > 100 µM (inactive), the GI50 (A498) is reported as > 100 µM (inactive) and the GI50 (A549) is reported as > 100 µM (inactive). The GI50 (ACHN) was > 100 µM (inactive), the GI50 (BT-549) was > 100 µM (inactive) and the GI50 (CAKI-1) was > 100 µM (inactive). For the same molecule, the GI50 (CCRF-CEM) was > 100 µM (inactive), the GI50 (COLO 205) was > 100 µM (inactive) and the GI50 (DU-145) was > 100 µM (inactive). The GI50 (EKVX) was > 100 µM (inactive), the GI50 (HCT-116) was > 100 µM (inactive) and the GI50 (HCT-15) was greater than 100 µM. The GI50 (HOP-62) was > 100 µM (inactive), the GI50 (HOP-92) was > 100 µM (inactive) and the GI50 (HT-29) was > 100 µM (inactive). The GI50 (Hs-578T) was > 100 µM (inactive), the GI50 (IGROV-1) was > 100 µM (inactive) and the GI50 (K562) was > 100 µM (inactive). For the same molecule, the GI50 (KM12) was > 100 µM (inactive), the GI50 (LOX IMVI) was > 100 µM (inactive) and the GI50 (M14) was > 100 µM (inactive). The GI50 (MCF7) was > 100 µM (inactive), the GI50 (MDA-MB-231) was > 100 µM (inactive) and the GI50 (MDA-MB-435) was > 100 µM (inactive). The GI50 (MDA-N) was > 100 µM (inactive), the GI50 (MOLT-4) was > 100 µM (inactive) and the GI50 (Malme-3M) was > 100 µM (inactive). The GI50 (NCI-H23) was > 100 µM (inactive), the GI50 (NCI-H460) was > 100 µM (inactive) and the GI50 (NCI-H522) was > 100 µM (inactive). For the same molecule, the GI50 (NCI/ADR-RES) was > 100 µM (inactive), the GI50 (OVCAR-3) was > 100 µM (inactive) and the GI50 (OVCAR-4) was > 100 µM (inactive). The GI50 (OVCAR-5) was > 100 µM (inactive), the GI50 (OVCAR-8) was > 100 µM (inactive) and the GI50 (PC-3) was > 100 µM (inactive). For the same molecule, the GI50 (RPMI-8226) was > 100 µM (inactive), the GI50 (RXF 393) was > 100 µM (inactive) and the GI50 (SF-268) was > 100 µM (inactive). For the same molecule, the GI50 (SF-295) was > 100 µM (inactive), the GI50 (SF-539) was > 100 µM (inactive) and the GI50 (SK-MEL-28) was > 100 µM (inactive). For the same molecule, the GI50 (SK-MEL-2) was > 100 µM (inactive), the GI50 (SK-MEL-5) was > 100 µM (inactive) and the GI50 (SK-OV-3) was > 100 µM (inactive). For the same molecule, the GI50 (SN12C) was > 100 µM (inactive), the GI50 (SNB-19) was > 100 µM (inactive) and the GI50 (SNB-75) was > 100 µM (inactive). For the same molecule, the GI50 (SR) was > 100 µM (inactive), the GI50 (SW-620) was > 100 µM (inactive) and the GI50 (T47D) was > 100 µM (inactive). For the same molecule, the GI50 (TK-10) was > 100 µM (inactive), the GI50 (U-251) was > 100 µM (inactive) and the GI50 (UACC-257) was > 100 µM (inactive). For the same molecule, the GI50 (UACC-62) was > 100 µM (inactive) and the GI50 (UO-31) was > 100 µM (inactive).

c1cc(CCN2CCCCC2)ccn1 was tested, and the GI50 (786-0) was > 100 µM (inactive), the GI50 (A498) was > 100 µM (inactive) and the GI50 (A549) was > 100 µM (inactive). The GI50 (ACHN) was > 100 µM (inactive), the GI50 (BT-549) was > 100 µM (inactive) and the GI50 (CAKI-1) was > 100 µM (inactive). For the same molecule, the GI50 (COLO 205) was > 100 µM (inactive), the GI50 (DU-145) was > 100 µM (inactive) and the GI50 (EKVX) was > 100 µM (inactive). The GI50 (HCT-116) was > 100 µM (inactive), the GI50 (HCT-15) was greater than 100 µM and the GI50 (HOP-62) was > 100 µM (inactive). For the same molecule, the GI50 (HOP-92) was > 100 µM (inactive), the GI50 (HT-29) was > 100 µM (inactive) and the GI50 (Hs-578T) was > 100 µM (inactive). The GI50 (IGROV-1) was > 100 µM (inactive), the GI50 (K562) was > 100 µM (inactive) and the GI50 (KM12) was > 100 µM (inactive). For the same molecule, the GI50 (LOX IMVI) was > 100 µM (inactive), the GI50 (M14) was > 100 µM (inactive) and the GI50 (MCF7) was > 100 µM (inactive). The GI50 (MDA-MB-231) was > 100 µM (inactive), the GI50 (MDA-MB-435) was > 100 µM (inactive) and the GI50 (MDA-N) was > 100 µM (inactive). For the same molecule, the GI50 (MOLT-4) was 35.2 µM (inactive), the GI50 (Malme-3M) was > 100 µM (inactive) and the GI50 (NCI-H226) was > 100 µM (inactive). For the same molecule, the GI50 (NCI-H23) was > 100 µM (inactive), the GI50 (NCI-H460) was > 100 µM (inactive) and the GI50 (NCI-H522) was > 100 µM (inactive). For the same molecule, the GI50 (NCI/ADR-RES) was > 100 µM (inactive), the GI50 (OVCAR-3) was > 100 µM (inactive) and the GI50 (OVCAR-4) was > 100 µM (inactive). For the same molecule, the GI50 (OVCAR-5) was > 100 µM (inactive), the GI50 (OVCAR-8) was > 100 µM (inactive) and the GI50 (PC-3) was > 100 µM (inactive). For the same molecule, the GI50 (RPMI-8226) was > 100 µM (inactive), the GI50 (RXF 393) was > 100 µM (inactive) and the GI50 (SF-268) was > 100 µM (inactive). For the same molecule, the GI50 (SF-295) was > 100 µM (inactive), the GI50 (SF-539) was > 100 µM (inactive) and the GI50 (SK-MEL-28) was > 100 µM (inactive). The GI50 (SK-MEL-2) was > 100 µM (inactive), the GI50 (SK-MEL-5) was > 100 µM (inactive) and the GI50 (SK-OV-3) was > 100 µM (inactive). For the same molecule, the GI50 (SN12C) was > 100 µM (inactive), the GI50 (SNB-19) was > 100 µM (inactive) and the GI50 (SNB-75) was > 100 µM (inactive). The GI50 (SR) was 33.3 µM (inactive), the GI50 (SW-620) was > 100 µM (inactive) and the GI50 (T47D) was > 100 µM (inactive). The GI50 (TK-10) was > 100 µM (inactive), the GI50 (U-251) was > 100 µM (inactive) and the GI50 (UACC-257) was > 100 µM (inactive). The GI50 (UACC-62) was > 100 µM (inactive) and the GI50 (UO-31) was > 100 µM (inactive).

N#Cc1ccc(Nc2nc3[nH]cnc3c(=O)[nH]2)cc1 was tested, and the GI50 (786-0) was > 100 µM (inactive), the GI50 (A498) was > 100 µM (inactive) and the GI50 (A549) was > 100 µM (inactive). The GI50 (ACHN) was > 100 µM (inactive), the GI50 (BT-549) was > 100 µM (inactive) and the GI50 (CAKI-1) was > 100 µM (inactive). For the same molecule, the GI50 (CCRF-CEM) was > 100 µM (inactive), the GI50 (COLO 205) was > 100 µM (inactive) and the GI50 (DU-145) was > 100 µM (inactive). The GI50 (EKVX) was > 100 µM (inactive), the GI50 (HCC 2998) was > 100 µM (inactive) and the GI50 (HCT-116) was > 100 µM (inactive). The GI50 (HCT-15) was greater than 100 µM, the GI50 (HL-60) was > 100 µM (inactive) and the GI50 (HOP-62) was > 100 µM (inactive). The GI50 (HOP-92) was > 100 µM (inactive), the GI50 (HT-29) was > 100 µM (inactive) and the GI50 (Hs-578T) was > 100 µM (inactive). For the same molecule, the GI50 (IGROV-1) was > 100 µM (inactive), the GI50 (KM12) was > 100 µM (inactive) and the GI50 (LOX IMVI) was > 100 µM (inactive). The GI50 (M14) was > 100 µM (inactive), the GI50 (MCF7) was > 100 µM (inactive) and the GI50 (MDA-MB-231) was > 100 µM (inactive). For the same molecule, the GI50 (MDA-MB-435) was > 100 µM (inactive), the GI50 (MDA-N) was > 100 µM (inactive) and the GI50 (MOLT-4) was > 100 µM (inactive). The GI50 (Malme-3M) was > 100 µM (inactive), the GI50 (NCI-H226) was > 100 µM (inactive) and the GI50 (NCI-H23) was > 100 µM (inactive). The GI50 (NCI-H460) was > 100 µM (inactive), the GI50 (NCI-H522) was > 100 µM (inactive) and the GI50 (NCI/ADR-RES) was > 100 µM (inactive). The GI50 (OVCAR-3) was > 100 µM (inactive), the GI50 (OVCAR-4) was > 100 µM (inactive) and the GI50 (OVCAR-5) was > 100 µM (inactive). For the same molecule, the GI50 (OVCAR-8) was > 100 µM (inactive), the GI50 (PC-3) was > 100 µM (inactive) and the GI50 (RPMI-8226) was > 100 µM (inactive). For the same molecule, the GI50 (SF-268) was > 100 µM (inactive), the GI50 (SF-295) was > 100 µM (inactive) and the GI50 (SF-539) was > 100 µM (inactive). The GI50 (SK-MEL-28) was > 100 µM (inactive), the GI50 (SK-MEL-2) was > 100 µM (inactive) and the GI50 (SK-MEL-5) was > 100 µM (inactive). The GI50 (SK-OV-3) was > 100 µM (inactive), the GI50 (SN12C) was > 100 µM (inactive) and the GI50 (SNB-19) was > 100 µM (inactive). For the same molecule, the GI50 (SNB-75) was > 100 µM (inactive), the GI50 (SR) was > 100 µM (inactive) and the GI50 (SW-620) was > 100 µM (inactive). For the same molecule, the GI50 (T47D) was > 100 µM (inactive), the GI50 (TK-10) was > 100 µM (inactive) and the GI50 (U-251) was > 100 µM (inactive). The GI50 (UACC-257) was > 100 µM (inactive), the GI50 (UACC-62) was > 100 µM (inactive) and the GI50 (UO-31) was > 100 µM (inactive).
